Earlier results as cited in patent US7368472B2, “1,2,4-Triaminobenzene derivatives useful for treating disorders of the central nervous system” (priority 2002, dated 2008).

Assays:
[1] = system: electrically induced seizures, seizures induced chemically by pentylenetetrazole, picrotoxin and NMDA, DBA/2 mouse; settings: oral and intraperitoneal administration, rats and mice
[2] = system: amygdala kindling model of complex partial seizures; settings: in vivo
[3] = system: incidence of seizures in epileptic patients
[4] = system: K(+) current in neuronal cells
[5] = system: kainic acid-induced status epilepticus; settings: rat
[6] = system: hippocampal kindling; settings: rat
[7] = system: animal models of anxiety-like behaviour; settings: in vivo

## CCOC(=O)Nc1ccc(NCc2ccc(F)cc2)cc1N [Retigabine, N-(2-amino-4-(4-fluorobenzylamino)-phenyl) carbamic acid ethyl ester]
[1]
  activity in anticonvulsant tests: active
[2]
  activity in amygdala kindling model: active
[3]
  reduction of seizure incidence in clinical trials: effectiveness in reducing the incidence of seizures
[4]
  activation of K(+) current: activate a K(+) current
[5]
  neuroprotection after status epilepticus: prevent limbic neurodegeneration and the expression of markers of apoptosis
[6]
  progression of hippocampal kindling: delay the progression of hippocampal kindling
[7]
  activity in models of anxiety-like behaviour: active
